In patent US20220054493A1, “INHIBITORS OF NGAL PROTEIN” (INSERM (INSTITUT NATIONAL DE LA SANTÉ ET DE LA RECHERCHE …, priority 2019, published 2022):

Columns and labels:
[1] = test system: Salt-sensitive hypertension; assay: Salt-sensitive hypertension (L-NAME plus High Salt Diet); format: in vivo, mice; details: GP1 100 mg/kg/day in food, 10 days; FIG. 17
Description: Systolic BP was measured by tail-cuff plethysmography in trained conscious mice at weeks 8-10 using a BP2000 Visitech model. BP was measured every day in the same room at the same hour for 5 consecutive days. The BP measurements (expressed as mmHg) presented are the averages of the last 3 days Salt-sensitive hypertension was induced by co-administration of L-NAME 70 mg/l in drinking water together with 8% NaCl in chow food (High Salt Diet, HSD) for 10 days. GP1 (100 mg/kg/day) was added or not into the food. Control experiments included vehicle (control), L-NAME or high salt (HSD) alone. Systolic blood pressure (expressed as mmHg) was estimated in the last 3 days of treatment.

hERG channel = target: T1, hERG channel (Homo sapiens, UniProt Q12809); assay: Cardiotoxicity, Predictor hERG fluorescence polarization kit; format: binding
T1 construct: purchased Thermo Fisher Scientific
Description: (§1) Two specific toxicity assays have been performed to assess hepatoxicity and cardiotoxicity. Hepatotoxicity was evaluated in isolated hepatocytes from swiss mice and determined by the MTT colorimetric assay. Cardiotoxicity was evaluated using the commercially available Predictor hERG fluorescence polarization kit (Thermo Fisher Scientific). Several ADME assays have been carried out on the compounds generated throughout the project. The following experiments were undertaken: Stability in human microsomes, binding to human plasma protein, and CYP3A4 inhibition assay (Vivid CYP3A4 assay, Thermo Fisher Scientific). Physico-chemical properties were also assessed such as aqueous solubility and chemical stability.

[2] = test system: isolated hepatocytes from swiss mice; assay: Hepatotoxicity, MTT colorimetric assay; format: cell-based
Description: as §1

[3] = test system: aldosterone-induced profibrotic marker synthesis; assay: Aldosterone-induced profibrotic marker synthesis in human cardiac fibroblasts; format: cell-based; details: FIGS. 1 and 2 panel D
Description: Cell Culture Human cardiac fibroblasts (primary culture) were obtained from Promocell and maintained in medium (Fibroblast Media 3). Cells were cultured according to the manufacturer's instructions and used between passages 5 and 7. Cells were stimulated with aldosterone (10^-8 M, Sigma) or recombinant hNGAL (500 ng/mL, R&D Systems) for 24 h for protein analysis. Mouse kidney fibroblasts (MKF), were isolated from Wild Type (WT) mice. Briefly, mice 7 to 8 weeks were sacrificed by cervical dislocation and kidneys were cleaned and rinsed in cold DPBS (Dulbecco's Phosphate-Buffered Saline). […]
Total protein aliquots of 20 μg were prepared from cardiac homogenates and electrophoresed on SDS polyacrylamide gels and transferred to Hybond-c Extra nitrocellulose membranes (Amersham Biosciences). […] After densitometric analyses, optical density values were expressed as arbitrary units. Results are expressed as an n-fold increase over the values of the control group in densitometric arbitrary units.
NGAL, IL6 and collagen type I concentrations were measured in cardiac tissue and cell supernatants, respectively, by ELISA according to the manufacturer's instructions (R&D Systems).
The inhibitory activity of the compounds was evaluated on the NGAL-induced IL6 secretion (NGAL 10 ng/ml) in human cardiac fibroblasts. […]

[4] = test system: Myocardial Infarction Model; assay: Cardiac function (echocardiography, LV hemodynamics) in the myocardial infarction model; format: in vivo, mice; details: MI model, 100 mg/kg/day in food admix, three months
Description: 8-12 weeks old mice (WT C57B16 for GP1 compound experiments) or 8-12 weeks old mice with genetic inactivation of lcn2 (as described in Martinez-martinez et al., Hypertension 2017, December; 70(6):1148-1156) have been used. LV diastolic and systolic diameters were measured in anesthetized (isofluorane 1.5%) mice, according to the American Society of Echocardiography's leading-edge method (using Vivid 7 echograph a 14 Mhz probe). In addition, LV outflow velocity was measured by pulsed waves, and CO was calculated as follows: CO=aortic VTI×[πx·(LV outflow diameter/2)^2]×heart rate, where VTI is velocity-time integral.
LV hemodynamic was assessed as described previously.
Mice were anesthetized (chloral 320 mg·kg−1, IP) and the carotid artery cannulated with a pressure-volume catheter (SPR839, Millar-Instruments, USA) and the catheter was advanced into the LV. Pressure-volume loops were obtained at baseline and during loading by gently occluding the abdominal aorta. LV end-systolic and end-diastolic pressures, dP/dtmax/min, LV relaxation constant tau and were measured/calculated with IOX software (EMKA, France).

T1 sequence (Q12809 whole entry): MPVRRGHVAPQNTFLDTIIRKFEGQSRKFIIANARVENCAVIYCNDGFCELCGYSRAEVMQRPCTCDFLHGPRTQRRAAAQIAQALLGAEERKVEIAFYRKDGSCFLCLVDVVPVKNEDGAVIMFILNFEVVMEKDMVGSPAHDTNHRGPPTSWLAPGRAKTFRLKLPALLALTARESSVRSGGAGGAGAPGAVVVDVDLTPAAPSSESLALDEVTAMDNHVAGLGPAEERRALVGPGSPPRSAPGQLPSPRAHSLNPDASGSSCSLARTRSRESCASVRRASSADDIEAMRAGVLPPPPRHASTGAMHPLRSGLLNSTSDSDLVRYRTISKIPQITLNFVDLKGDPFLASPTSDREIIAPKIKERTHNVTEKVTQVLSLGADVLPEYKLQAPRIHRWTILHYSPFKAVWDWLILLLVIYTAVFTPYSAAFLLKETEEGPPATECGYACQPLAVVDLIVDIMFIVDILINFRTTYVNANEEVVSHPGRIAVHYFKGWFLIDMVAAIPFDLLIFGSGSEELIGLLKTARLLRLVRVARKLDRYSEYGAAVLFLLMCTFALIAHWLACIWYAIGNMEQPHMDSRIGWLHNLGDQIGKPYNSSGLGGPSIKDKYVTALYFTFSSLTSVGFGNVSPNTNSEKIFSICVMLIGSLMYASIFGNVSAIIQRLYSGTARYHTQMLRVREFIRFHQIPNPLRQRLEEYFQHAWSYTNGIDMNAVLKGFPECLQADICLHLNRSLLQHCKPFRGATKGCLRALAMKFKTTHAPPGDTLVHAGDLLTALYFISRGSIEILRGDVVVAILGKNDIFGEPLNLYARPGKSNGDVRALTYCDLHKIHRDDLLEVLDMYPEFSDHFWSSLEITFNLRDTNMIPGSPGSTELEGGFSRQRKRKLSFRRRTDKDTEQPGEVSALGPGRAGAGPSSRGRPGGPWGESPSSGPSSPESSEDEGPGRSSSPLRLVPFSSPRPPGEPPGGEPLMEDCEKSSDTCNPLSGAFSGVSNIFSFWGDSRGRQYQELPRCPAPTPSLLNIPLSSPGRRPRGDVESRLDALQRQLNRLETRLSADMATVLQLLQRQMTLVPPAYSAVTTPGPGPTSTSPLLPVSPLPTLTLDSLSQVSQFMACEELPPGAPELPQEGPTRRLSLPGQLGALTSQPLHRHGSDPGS

## CC(=O)c1cccc(S(=O)(=O)NCc2ccccc2-n2cccn2)c1 [GPZ614741]
[1]
  increase of blood pressure induced by the combination of L-NAME and high salt (HSD): prevented the increase
hERG channel
  cardiotoxicity (hERG predictor assay): no toxicity
hERG channel; 100 = no toxicity
  Cardiotoxicity % (100 = no toxicity): 101.76 ± 2.48%
[2]; MTT up to 0.1 mM
  hepatotoxicity (toxicity for hepatocytes): no toxicity
[2]; cell wrapped over two lines: No tox up / 100 uM
  Hepatotoxicity: No tox up
[3]
  aldosterone-induced profibrotic marker (Col1, CT-1, or IL6) synthesis: inhibited
[4]; FIG. 7 panel A
  fractional shortening (LV Frac. Short.): significant increase
[4]; FIG. 7 panel D
  stroke volume: increased
[4]; FIG. 7 panel E
  cardiac output: increased
[4]; FIG. 7 panels B-C
  LV diastolic diameter (LV Diast. Diam.): slight although statistical non-significant decrease
  LV systolic diameter (LV Syst. Diam.): slight although statistical non-significant decrease
[4]; FIG. 8 panel A
  LV end-systolic pressure (LVESP): not modified
[4]; FIG. 8 panel B
  LV dP/dtmax: significant increase
[4]; FIG. 8 panel C
  LV end-diastolic pressure (LVEDP): tended to be reduced
[4]; FIG. 8 panel D
  LV dP/dtmin: increased
[4]; FIG. 8 panel E
  LV relaxation constant Tau: decreased
